What was measured:
[1] = xn = mol fraction of the nth substance listed; conditions: 313.15 K, 101 kPa, Liquid; for speed of sound: Sing-around technique in a fixed-path interferometer; for mass density: Vibrating tube method
[2] = refractive index (Na D-line) (dimensionless); xn = mol fraction of the nth substance listed; conditions: 313.15 K, 101 kPa, Liquid, Standard Abbe refractometry

CCCCCC [hexane] + Cc1ccccc1
Conditions | mass density, [1] [kg/m3] | refractive index, [2] | speed of sound, [1] [m/s]
x1 = 0.1032 | 822.9 | 1.47028 | 1208.5
x1 = 0.198 | 800.5 | 1.4571 | 1180.8
x1 = 0.2997 | 777.5 | 1.44367 | 1153.5
x1 = 0.4027 | 755.1 | 1.43045 | 1127.5
x1 = 0.5005 | 734.6 | 1.41844 | 1104.6
x1 = 0.5998 | 714.7 | 1.40685 | 1083.1
x1 = 0.6987 | 695.5 | 1.3956 | 1063.3
x1 = 0.7984 | 677 | 1.38476 | 1044.5
x1 = 0.9042 | 658.1 | 1.37387 | 1026.3
x1 = 1 | 641.4 | 1.36411 | 1010.3

CCCCCC [hexane] + c1ccccc1
x1 = 1
Conditions | mass density [kg/m3] | refractive index | speed of sound [m/s]
[1] | 641.4 | – | 1010.3
[2] | – | 1.36411 | –

CCCCCCCCC [nonane] + CCc1ccccc1
Conditions | mass density, [1] [kg/m3] | refractive index, [2] | speed of sound, [1] [m/s]
x1 = 0.0527 | 837.7 | 1.47759 | 1245.4
x1 = 0.1043 | 827.1 | 1.47111 | 1234.9
x1 = 0.2032 | 808.1 | 1.45968 | 1217.6
x1 = 0.3009 | 791 | 1.44884 | 1203.2
x1 = 0.4018 | 774.9 | 1.43899 | 1190.7
x1 = 0.5009 | 760.3 | 1.43055 | 1180.1
x1 = 0.6003 | 746.9 | 1.42241 | 1171.2
x1 = 0.7012 | 734.4 | 1.41482 | 1163.5
x1 = 0.8044 | 722.4 | 1.40792 | 1156.7
x1 = 0.9026 | 712 | 1.40178 | 1151.1
x1 = 0.9519 | 707 | 1.39883 | 1148.8
x1 = 1 | 702.2 | 1.39609 | 1146.4

CCCCCCCCC [nonane] + Cc1ccccc1
Conditions | mass density, [1] [kg/m3] | refractive index, [2] | speed of sound, [1] [m/s]
x1 = 0.1045 | 823.2 | 1.4692 | 1217.6
x1 = 0.2019 | 802.9 | 1.45691 | 1200.3
x1 = 0.3002 | 785 | 1.44571 | 1187
x1 = 0.4021 | 768.7 | 1.43571 | 1176
x1 = 0.502 | 754.5 | 1.42674 | 1167.7
x1 = 0.601 | 741.9 | 1.41934 | 1161.1
x1 = 0.696 | 731 | 1.41289 | 1156.2
x1 = 0.8032 | 719.9 | 1.40639 | 1151.8
x1 = 0.9022 | 710.6 | 1.40097 | 1148.9
x1 = 0.9501 | 706.4 | 1.3985 | 1147.7
x1 = 1 | 702.2 | 1.39609 | 1146.4

CCCCCCCCC [nonane] + c1ccccc1
Conditions | mass density, [1] [kg/m3] | refractive index, [2] | speed of sound, [1] [m/s]
x1 = 0.0535 | 839.7 | 1.47693 | 1212.1
x1 = 0.1025 | 825.4 | 1.46801 | 1199
x1 = 0.2013 | 800.8 | 1.45327 | 1179.5
x1 = 0.3006 | 780.6 | 1.44079 | 1166.1
x1 = 0.3997 | 763.8 | 1.43104 | 1157.2
x1 = 0.5 | 749.5 | 1.42229 | 1151.4
x1 = 0.5992 | 737.3 | 1.41549 | 1147.7
x1 = 0.7052 | 726.2 | 1.40945 | 1145.9
x1 = 0.8034 | 717.2 | 1.40436 | 1145.2
x1 = 0.9018 | 709.3 | 1.3999 | 1145.6
x1 = 0.9499 | 705.7 | 1.39796 | 1145.9
x1 = 1 | 702.2 | 1.39609 | 1146.4

CCCCCCCC [octane] + CCc1ccccc1
x1 = 1
Conditions | mass density [kg/m3] | refractive index | speed of sound [m/s]
[1] | 686.3 | – | 1110.6
[2] | – | 1.38769 | –

CCCCCCCC [octane] + Cc1ccccc1
Conditions | mass density, [1] [kg/m3] | refractive index, [2] | speed of sound, [1] [m/s]
x1 = 0.0542 | 834.6 | 1.47708 | 1226.2
x1 = 0.1022 | 823.4 | 1.46982 | 1214.8
x1 = 0.2014 | 802 | 1.45667 | 1194.1
x1 = 0.3037 | 782 | 1.44463 | 1176.2
x1 = 0.3965 | 765.5 | 1.43362 | 1162.3
x1 = 0.4983 | 749.1 | 1.42473 | 1149.7
x1 = 0.5986 | 734.3 | 1.41567 | 1139.1
x1 = 0.7016 | 720.5 | 1.4075 | 1130
x1 = 0.8007 | 708.4 | 1.40046 | 1122.5
x1 = 0.902 | 696.6 | 1.39376 | 1116.1
x1 = 0.9493 | 691.6 | 1.39079 | 1113.1
x1 = 1 | 686.3 | 1.38769 | 1110.6

CCCCCCCC [octane] + c1ccccc1
Conditions | mass density, [1] [kg/m3] | refractive index, [2] | speed of sound, [1] [m/s]
x1 = 0.0541 | 839.6 | 1.4762 | 1210.5
x1 = 0.1014 | 825.5 | 1.46817 | 1196.3
x1 = 0.202 | 799.3 | 1.45259 | 1172.2
x1 = 0.3022 | 777.2 | 1.4384 | 1154.3
x1 = 0.404 | 758.4 | 1.42757 | 1140.9
x1 = 0.5023 | 742.2 | 1.41799 | 1131
x1 = 0.6011 | 728.3 | 1.41072 | 1123.7
x1 = 0.7087 | 714.9 | 1.4035 | 1118
x1 = 0.8051 | 704.4 | 1.3977 | 1114.4
x1 = 0.9015 | 695 | 1.39253 | 1112.1
x1 = 0.9514 | 690.5 | 1.39004 | 1111.2
x1 = 1 | 686.3 | 1.38769 | 1110.6

Cc1ccccc1 [toluene] + CCCCCC
x2 = 0
Conditions | mass density [kg/m3] | refractive index | speed of sound [m/s]
[1] | 848 | – | 1240.7
[2] | – | 1.48464 | –
